Measured values published in PubChem BioAssay AID179 (DTP/NCI, 2004).
“And” between values parts separate entries of the source, which are not always exact repeats. Identical values can stand only once. The source made the active and inactive calls.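 How the source made its calls: active means compounds giving half or more protection of infected cells from virus-caused growth loss, again on retest; inactive means the rest.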 Where a SMILES comes first, the peptide text is derived from it.

Tested on: CEM cells HIV-1 protection, formazan growth assay
Assay: NCI AIDS Antiviral Assay
Details: for IC50: measured here: growth of uninfected CEM cells
Outline: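 Category rules: moderately active means at least 50% protection on retest, and confirmed active means 100% protection reproducibly. The underlying data came from a formazan growth assay in HIV-1-infected CEM cells.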

| SMILES | EC50 [µM] | IC50 | outcome |
| --- | --- | --- | --- |
| Cc1ccc(NC(=O)CCc2nc(=S)[nH][nH]2)cc1 | 251 | 331 µM | – |
| C=C(C)C1=NC(C)(C)CC1=C(C)C | – | – | inactive |
| CC(NC(=O)CNC(=O)C(N)CO)C(=O)NC(CCC(=O)O)C(=O)NC(CCCCN)C(=O)NC(C(=O)NC(CCC(N)=O)C(=O)NC(CCC(=O)O)C(=O)NC(CCC(N)=O)C(=O)NC(CCCN=C(N)N)C(=O)NC(C)C(=O)NC(CC(N)=O)C(=O)NC(C)C(=O)NC(Cc1cnc[nH]1)C(=O)NC(CO)C(=O)O)C(C)O (stereo not drawn) (H-SGAEKTQEQRANAHS-OH; configuration not given here) | > 100 | > 100 µM | – |
| N#CC1(Cc2ccccc2[N+](=O)[O-])c2ccccc2C2C(N1C(=O)c1ccccc1)C2(Cl)Cl (stereo not drawn) | – | – | inactive |
| Cc1cc(N(CCC#N)S(=O)(=O)c2ccccc2)ccc1C=Nc1ccc(C(=O)O)cc1 | > 151 | 85.1 µM | – |
| CC1=C[C@H]2O[C@@H]3[C@H](O)[C@@H](O)[C@](C)(C2(COC(=O)CCl)CC1)[C@@]31CO1 (stereo partly drawn) | > 6.92 | 0.0178 µM | – |
| CC(=O)Nc1cc(NC(C)=O)c(N=O)c(NC(C)=O)n1 | – | – | inactive |
| O=C1/C(=C/c2cccc([N+](=O)[O-])c2)CCc2ccccc21 | > 9.77 | > 9.77 µM | – |
| NC(=O)C(F)(Cc1ccccc1)C(=O)O (stereo not drawn) | > 200 | > 200 µM | – |
| CCC(C)C(=O)O[C@H]1C(=O)O[C@@H]2C[C@H]3C(C)=CC(=O)[C@@H](O)[C@]3(C)[C@H]3[C@@H](O)[C@H](O)[C@@]4(C)OC[C@]32[C@@H]14 (stereo partly drawn) | > 5.25 | 0.00891 µM | – |
| CCOP(=O)(OCC)/C(C#N)=C/c1cnc[nH]1 | > 200 | > 200 µM | – |
| CCN(CC)CCC(=O)c1ccc(Oc2ccc(Cl)cc2)cc1 | > 200 | 30.2 µM | – |
| CCc1cccc(C)c1NC(=O)C(=O)Cc1nc2ccccc2s1 | – | – | inactive |
| Cc1ccc(C(=O)/C=C/c2ccccc2Cl)cc1 | > 5.62 | > 5.62 µM | – |
| CC(=O)[O-].CC(=O)[O-].CC(=O)[O-].CC(=O)[O-].CO.CO.CO.[Rh+2].[Rh+2].c1ccc(-c2ccccn2)nc1 | 145 | 174 µM | – |
| CC1(C)C2(C(N)=O)C(=O)NC(=O)C12C(=O)O (stereo not drawn) | > 200 | > 200 µM | – |
| CN(C)CCN1CCC(Cc2ccccc2)CC1 | > 200 | 72.4 µM | – |

| SMILES | EC50 [µM] | IC50 | outcome |
| --- | --- | --- | --- |
| CCN(CC)C1Oc2cc3c(cc2C(c2ccc(OC)cc2)C1C)OCO3 (stereo not drawn) | > 200 | 24 µM | – |
| CC(C)(CCc1nc2ccccc2[nH]1)C(=O)O | > 200 | > 200 µM | – |
| CC1(C)Oc2cc3oc(C(=O)O)cc(=O)c3cc2-c2ccc(O)cc21 | > 490 | 347 µM | – |
| COC(=O)[C@@]12CC(C(C)C)[C@H]3CC(C(=O)C=C1OC)[C@H]32 (stereo partly drawn) | – | – | inactive |
| C/C(=N/OC(=O)N(C)C)c1cccc(Cl)c1 | > 200 | 166 µM | – |
| COc1ccc(-c2nc(-c3cnccn3)n(COCCO)n2)cc1 | > 200 | > 200 µM | – |
| Cc1cc(N(CCC#N)CCC#N)ccc1/C=C(\N=[N+]=[N-])C(=O)NC(=O)COc1ccccc1 | > 8.32 | > 8.32 µM | – |
| CC(=O)Nc1ccc(C(=O)NN2C(=O)C(Cl)C2c2cc(Br)cc(Br)c2O)cc1 (stereo not drawn) | – | – | inactive |
| O=c1cc(CO)[nH]cc1O | – | – | inactive |
| O=C(Nc1ccc(C2=NCCN2)cc1)c1ccc(C(=O)Nc2ccc(C3=NCCN3)cc2)c(Cl)c1 | > 200 | 49 µM | – |
| CC(=O)N1CC2Nc3ccccc3C2CC1CO (stereo not drawn) | – | – | inactive |
| Clc1cnnc2nc[nH]c12 | > 1150 | 135 µM | – |
| O=C(O)/C=C\SCCCC(=O)O | > 1320 | > 1320 µM and 1100 µM | – |
| Clc1ccc(C2=C(c3ccccc3)C(c3ccc(Cl)cc3)N3C(=N[C@H]4CCCC[C@@H]43)N2)cc1 (stereo partly drawn) | > 200 | 20.9 µM | – |
| CCCCCC#CC1OC12CCCCC2 (stereo not drawn) | > 126 | > 126 µM | – |
| O=c1[nH]nc(Cc2ccccc2)n1/N=C/c1c(O)ccc2ccccc12 | 40.7 | 174 µM | – |
